According to PMC6261607, “Novel high–throughput myofibroblast assays identify agonists with therapeutic potential in pulmonary fibrosis that act via EP2 and EP4 receptors” (PLoS ONE, 2018):
Like-named read-outs stand apart in the source and are kept apart here.

Legend:
[1] = tested on: normal human lung fibroblasts (NHLF); test: Phenotypic high-content assay (HCA) of TGF–β1–induced fibroblast–to–myofibroblast differentiation; format: cell-based; conditions: NHLF, 5 ng/ml TGF–β1 for 48 h, compound added with TGF–β1, mean ± SD, read-out: HCA IC50
Experimental: The plate was washed 3 times with starvation medium, e.g. fibroblast basal medium (FBM, Lonza) supplemented with 0.1% faf BSA, 100 units / ml of penicillin and 100 μg / ml of streptomycin and 250 ng / ml amphotericin B, and then starved for 24 h in 30 μl volume. NHLF were differentiated into myofibroblasts by incubation with 5 ng / ml TGF–β1 (from a stock of 20 μg / ml in 4 mM HCl, 1 mg / ml BSA) for 48 h. Compounds were prepared as 5x stocks in starvation medium and added to the starved cells to a final 1x concentration concomitant with TGF–β1 addition. The final DMSO concentration in the assay was 0.6% in all wells. 48 h after TGF–β1 addition, the medium was removed and the cells were fixed in methanol for 10 min at room temperature (RT). After fixation, cells were washed 3 times with 1 x PBS and either stored at 4°C for up to 3 days or further processed. […] Images were acquired on the Opera Phenix confocal high–content screening system (Perkin Elmer) using the 20–x water immersion lens.
DAPI stained nuclei were used to identify cells. α–SMA and FN regions were then identified and mapped to the corresponding nuclei for background correction, cell segmentation and cell feature computation to identify, classify and weigh over 400 features per cell. The computed features (S1 Table) comprise, but are not limited to, granularity, intensity, texture, area, shape and solidity of a cell in both α–SMA–and FN–expressing regions. The 0% compound effect (5 ng / ml TGF–β1) and the 100% compound effect (0 ng / ml TGF–β1) controls, were used to train and validate a support vector machine (SVM), a supervised learning model with associated learning algorithm that, once successfully validated, was applied to every cell in every well of the assayed microtiter plate. The SVM allowed autonomous weighting and classification of the characteristics and thus enabled the classifier to decide which characteristics were most relevant for the differentiation of the cell types. […] The classification of each cell was aggregated to a cell type ratio per well, represented as the computed percentage effect value per well indicative of the degree of myofibroblast differentiation. E.g. 100% equals complete myofibroblast differentiation, 0% indicates a pure fibroblast population without any signs of differentiation.

[2] = tested on: normal human lung fibroblasts (NHLF); test: Impedance measurement of TGF–β1–induced myofibroblast transition (IPQA), standard assay; format: cell-based; conditions: 5 ng/ml TGF–β1, compound added with TGF–β1, impedance at t = 20 h post TGF–β1, mean ± SD, read-out: Impedance IC50
Experimental: To measure dynamic cell shape and adhesion changes during fibrotic transdifferentiation, NHLF were seeded at a density of 20,000 cells per well in FGM–2 growth medium (Lonza) containing 100 units / ml of penicillin and 100 μg / ml of streptomycin into E–plates with continued impedance signal measurement (xCELLigence system, Roche Applied Science). After overnight growth, the medium was exchanged for FBM (Lonza) supplemented with 100 units / ml of penicillin and 100 μg / ml of streptomycin and 0.1% faf BSA and cells were starved for 32 h. Compound dilution series were added and myofibroblast transition was induced by adding TGF–β1 at a concentration of 5 ng / ml, followed by continued impedance sampling for up to 48 h. For data analysis, impedance raw traces were normalized to the time point of compound addition and the baseline response (DMSO, non–TGF–β1 treated cells) was subtracted. In some cases, impedance values at defined time points were used to generate concentration–response curves to determine compound potency and efficacy using GraphPad Prism software version 7 (GraphPad Software Inc).

[3] = tested on: α–SMA protein in NHLF cells; test: RapidFire MS/MS quantification of α–SMA (IPQA), standard assay; format: cell-based, human; conditions: NHLF, 5 ng/ml TGF–β1, lysed 48 h after TGF–β1, normalized to tubulin, mean ± SD, read-out: MS / MS α–SMA IC50
Experimental: (§1) Cell culture medium was removed and cells were lysed on ice by adding 5 μl / well of pre–cooled protein extraction buffer containing 10 mM Tris–HCl (pH 8.0), 6 M urea and 2 M thiourea and shaking on ice on a plate shaker at 600 rpm for 30 min.
(§2) Cell lysate was transferred to a 96–well polypropylene–PCR–plate. 15 μl / well denaturation buffer (6 M urea, 50 mM ammonium bicarbonate) and 2 μl / well of 50 mM TCEP were added and samples were denatured for 1 h at 60°C using the Veriti 96–well Fast Thermal Cycler System (Applied Biosystem) with a heated lid. Plates were allowed to cool to RT. Subsequently, 2 μl of 100 mM iodoacetamide were added per well to derivatize cysteine residues. Plates were then sealed and vortexed for 2 min in the dark and incubated for 30 min at 37°C in a thermal cycler with a heated lid. 90 μl of 50 mM ammonium bicarbonate pH 7.8 were added, followed by the addition of 10 μl of trypsin at 0.02 μg / ml. Samples were trypsin–digested overnight at 37°C in a thermal cycler with heated lid. […] Samples were desalted under vacuum using an Oasis HLB 96–well (30 μm particle size, 5 mg sorbent / well) reverse phase cartridge according to the manufacturer’s instructions and eluted with 170 μl of 90% acetonitrile, 0.1% formic acid. Samples were dried down with a flow of nitrogen at 40°C, left to cool to RT and re–suspended in 40 μl 5% acetonitrile, 0.1% formic acid on a plate shaker set to 1400 rpm for 5 min. Plates were centrifuged at 4,000 rpm for 10 min and 2 times 12 μl / well of supernatant were transferred into separate 96–well plates (Greiner Bio–One), sealed and stored at 4°C until analyzed by MS / MS.
(§3) Surrogate tryptic peptides were chosen for detection of COL1 (COL1A1), α–SMA (ACTA) and tubulin (TBA1A1) and crude synthetic peptides were purchased from Thermo Fischer. After several rounds of optimization following standard workflows, […] (COL1 / COL1A1), […] (α–SMA / ACTA) and […] LC–MS / MS analysis was performed on a RapidFire™ RF360 system (Agilent Technologies) coupled to an API 5500 (ABSciex) with positive ion electrospray ionization. […] Detection was performed using multiple reaction monitoring (MRM) mode to monitor parent⟶product ion transitions (m / z). […] The source parameters were curtain gas (CUR) nitrogen: 20 psig; collision gas (CAD): 7 psig; ion source gas 1: 50.0 psig; ion source gas 2: 50.0 psig; ion spray voltage (IS): 5500 V; turbo heater temperature (TEM): 600°C; entrance potential (EP): 10V. Peak areas for COL1A1 and ACTA were normalized by dividing by TBA1A peak area.

[4] = tested on: COL1 protein in NHLF cells; test: RapidFire MS/MS quantification of COL1 (IPQA), standard assay; format: cell-based, human; conditions: NHLF, 5 ng/ml TGF–β1, lysed 48 h after TGF–β1, normalized to tubulin, mean ± SD, read-out: MS / MS COL1 IC50
Experimental: as §1, §2, §3

[5] = tested on: α–SMA protein in TGF–β1–induced NHLF myofibroblasts; test: MS/MS α–SMA, NHLF myofibroblast reversal assay; format: cell-based, human; conditions: Homo sapiens; NHLF pre–stimulated 24 h with 5 ng/ml TGF–β1; representative experiment, S7 Fig D; read-out: IC50, reversal of α–SMA (curve of a single experiment)
Experimental: as §1, §2, §3
(§4) To identify compounds with potential to revert differentiated myofibroblasts to fibroblasts the assay procedures were modified. After 24 h starvation, NHLF cells were stimulated with 5 ng / ml TGF–β1 for 24 h. At t = 24 h TGF–β1 was removed and either vehicle (DMSO) or compounds were added and incubated with the cells for a further 72 h.

[6] = tested on: COL1 protein in TGF–β1–induced NHLF myofibroblasts; test: MS/MS COL1, NHLF myofibroblast reversal assay; format: cell-based, human; conditions: Homo sapiens, Col1; NHLF pre–stimulated 24 h with 5 ng/ml TGF–β1; representative experiment, S7 Fig E; read-out: IC50, reversal of COL1 (curve of a single experiment)
Experimental: as §1, §2, §3, §4

Row | SMILES | IC50 [1] [µM] | IC50 [2] [µM] | IC50 [3] [µM] | IC50 [4] [µM] | IC50 ([2]; Fibroblast) [µM] | IC50 ([3]; Homo sapiens) [µM] | also measured
1 | COc1cc(O)c2c(c1)/C=C/C[C@H](O)[C@H](O)C(=O)/C=C\C[C@H](C)OC2=O [5Z–7–Oxozeaenol] | 2.6 | 0.25 ± 0.17 | 0.3 ± 0.27 | 0.46 ± 0.27 |  |  | 
2 | CN(C)Cc1cccc(N/C(=C2\C(=O)Nc3cc(C(=O)N(C)C)ccc32)c2ccccc2)c1 [BIX 02189] | 22 | 6 | 14 | 6.5 |  |  | 
3 | O=C(Nc1cccc(Nc2ncc(Br)c(NCCc3cnc[nH]3)n2)c1)N1CCCC1 [BX–912] | 17 | 7.5 | 8.6 | 8.7 |  |  | 
4 | CCCCCCCC(=O)c1c(O)cc(O)cc1CC(=O)OCC [Csn–B] | 39 | > 50 | > 50 | > 50 |  |  | 
5 | Nc1[nH]nc2nnc(-c3c(-c4ccccc4)nn4ccccc34)cc12 [FR180204] | > 46 | 50 | 49 | 36 |  |  | 
6 | C=C[C@@]1(C)CC(=O)[C@]2(O)[C@@]3(C)[C@@H](O)CCC(C)(C)[C@@H]3[C@H](O)[C@H](OC(C)=O)[C@@]2(C)O1 [Forskolin] |  |  |  |  |  |  | IC50 [5]: 5.12 µM; IC50 [6]: 1.73 µM
7 | Cc1ccccc1-n1c(Cn2cnc3c(N)ncnc32)nc2cccc(C)c2c1=O [IC–87114] | 44 | > 5 | > 5 | 4.9 |  |  | 
8 | CC(C)NC[C@@H](C(=O)N1CCN(c2ncnc3c2[C@H](C)C[C@H]3O)CC1)c1ccc(Cl)cc1 [Ipatasertib] |  |  |  |  | 43 | 25 | IC50 ([1]; Homo sapiens, Fibroblast, 48 h): 22 µM; IC50 ([4]; Homo sapiens, Col1): > 50 µM
9 | O=c1cc(N2CCOCC2)oc2c(-c3ccccc3)cccc12 [LY294002] |  |  |  |  | 13 | 27 | IC50 ([1]; Homo sapiens, Fibroblast, 48 h): 2.4 µM; IC50 ([4]; Homo sapiens, Col1, 48 h): 45 µM
10 | O=C1c2ccc(Nc3ccc(F)cc3F)cc2CCc2ccc(OC[C@H](O)CO)cc21 [L–skepinone] |  |  |  |  | 5 | 0.96 ± 0.44 | IC50 ([1]; Homo sapiens, Fibroblast, 48 h): 23 µM; IC50 ([4]; Homo sapiens, Col1, 48 h): 1.5 µM
11 | COc1cccc(-c2cc(=O)c3ccccc3o2)c1N [PD98059] | > 46 | 19 | 50 | > 50 |  |  | 
12 | Cn1c(=O)c(Oc2ccc(F)cc2F)cc2cnc(NC(CCO)CCO)nc21 [Pamapimod] |  |  |  |  | 19 | 34 | IC50 ([1]; Homo sapiens, Fibroblast, 48 h): > 46 µM; IC50 ([4]; Homo sapiens, Col1): > 50 µM
13 | O=C(NCc1cccc(O)c1)Nc1nc(-c2ccncc2)cs1 [RKI 1447] | 4.3 | 8.4 | 0.15 ± 0.022 | 12.2 |  |  | 
14 | Cc1cccc(-c2[nH]c(C(C)(C)C)nc2-c2ccc3nccnc3c2)n1 [SB525334] | 2.5 | 0.12 ± 0.025 | 0.09 ± 0.005 | 0.38 ± 0.11 |  |  | 
15 | Oc1c2ccccc2c2c3c(cccc13)N=N2 [SP600125] |  |  |  |  | 48.5 | 38 | IC50 ([1]; Homo sapiens, Fibroblast, 48 h): > 46 µM; IC50 ([4]; Homo sapiens, Col1): 36 µM
16 | CC[C@@H](C(=O)[C@@H](C)[C@@H](O)[C@H](C)[C@@H]1O[C@@H]([C@@H](CC)C(=O)O)CC[C@@H]1C)[C@H]1O[C@]2(C=C[C@@H](O)[C@]3(CC[C@@](C)([C@H]4CC[C@](O)(CC)[C@H](C)O4)O3)O2)[C@H](C)C[C@@H]1C [Salinomycin] |  |  |  |  | 1.5 | 0.29 ± 0.3 | IC50 ([1]; Homo sapiens, Fibroblast): 15.8 µM; IC50 ([4]; Homo sapiens, Col1): 1.2 µM
17 | CCOc1cc(N2CCC(O)CC2)ccc1Nc1ncc2c(n1)N(C)c1ccccc1C(=O)N2C [XMD 8–92] | 12 | 4.4 | 2.4 | 5.4 |  |  | 
